Experimental data reported in PubChem BioAssay AID256 (DTP/NCI, 2004).
Inconclusive results and toxic doses are left out. The calls were made as follows: active = survival T/C of 150% or more; inactive = T/C below 125% in these data. Positions of bridges follow the written chain, without caps; N, C: chain ends. Residues, ends and D or L forms follow the SMILES beside them.

Test system: CD2F1 mice, L1210 leukemia ip, survival T/C
Assay: NCI In Vivo Anticancer Drug Screen. Data for tumor model L1210 Leukemia (intraperitoneal) in CD2F1 (CDF1) mice
Details: endpoint: mean survival time, higher = longer survival
Procedure, shortened: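 Vehicle-treated tumor-bearing mice served as controls (C) for compound-treated mice (T). Reported figure is T divided by C.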

[1] = dose: 100.0 mg/kg/injection, schedule: Q04DX002 (ip), vehicle: saline with Tween-80
[2] = dose: 200.0 mg/kg/injection, schedule: Q04DX002 (ip), vehicle: saline with Tween-80
[3] = dose: 400.0 mg/kg/injection, schedule: Q04DX002 (ip), vehicle: saline with Tween-80
[4] = dose: 100.0 mg/kg/injection, schedule: Q04DX003 (ip), vehicle: Klucel (hydroxypropylcellulose) (HPC)
[5] = dose: 200.0 mg/kg/injection, schedule: Q04DX003 (ip), vehicle: Klucel (hydroxypropylcellulose) (HPC)
[6] = dose: 100.0 mg/kg/injection, schedule: Q01DX009 (ip), vehicle: saline with Tween-80
[7] = dose: 200.0 mg/kg/injection, schedule: Q01DX009 (ip), vehicle: saline with Tween-80
[8] = dose: 400.0 mg/kg/injection, schedule: Q01DX009 (ip), vehicle: saline with Tween-80
[9] = dose: 100.0 mg/kg/injection, schedule: Q01DX001 (ip), vehicle: Klucel (hydroxypropylcellulose) (HPC)
[10] = dose: 200.0 mg/kg/injection, schedule: Q01DX001 (ip), vehicle: Klucel (hydroxypropylcellulose) (HPC)
[11] = dose: 400.0 mg/kg/injection, schedule: Q01DX001 (ip), vehicle: Klucel (hydroxypropylcellulose) (HPC)
[12] = dose: 100.0 mg/kg/injection, schedule: Q04DX003 (ip), vehicle: saline with Tween-80
[13] = dose: 200.0 mg/kg/injection, schedule: Q04DX003 (ip), vehicle: saline with Tween-80
[14] = dose: 400.0 mg/kg/injection, schedule: Q04DX003 (ip), vehicle: saline with Tween-80

Measured: T/C

NCCC(O)C(=O)NC1CC(N)C(OC2OC(CN)C(O)C(O)C2O)C(O)C1OC1OC(CO)C(O)C(N)C1O (stereo not given)
inactive: dose: 10.0 mg/kg/injection, schedule: Q04DX003 (ip), vehicle: saline 95 % of control | dose: 20.0 mg/kg/injection, schedule: Q04DX003 (ip), vehicle: saline 90 % of control | dose: 40.0 mg/kg/injection, schedule: Q04DX003 (ip), vehicle: saline 93 % of control

Sc1c(Cl)c(Cl)c(Cl)c(Cl)c1Cl
inactive: dose: 100.0 mg/kg/injection, schedule: Q04DX002 (ip), vehicle: Klucel (hydroxypropylcellulose) (HPC) 96 % of control | dose: 200.0 mg/kg/injection, schedule: Q04DX002 (ip), vehicle: Klucel (hydroxypropylcellulose) (HPC) 90 % of control | dose: 400.0 mg/kg/injection, schedule: Q04DX002 (ip), vehicle: Klucel (hydroxypropylcellulose) (HPC) 90 % of control

CCSC(C)CC(=O)O (stereo not given)
inactive: dose: 100.0 mg/kg/injection, schedule: Q01DX001 (ip), vehicle: saline 103 % of control | dose: 200.0 mg/kg/injection, schedule: Q01DX001 (ip), vehicle: saline 103 % of control

CC(C)(CCC#N)C(O)c1ccccc1 (stereo not given)
inactive: dose: 100.0 mg/kg/injection, schedule: Q04DX002 (ip), vehicle: other 98 % of control | dose: 200.0 mg/kg/injection, schedule: Q04DX002 (ip), vehicle: other 102 % of control | dose: 400.0 mg/kg/injection, schedule: Q04DX002 (ip), vehicle: other 105 % of control

CC1C(=O)OC2C1CCC1(C)C(O)OC(=O)C3(O)OC231 (stereo not given)
inactive: [1] 104 % of control | [2] 96 % of control | [3] 96 % of control

CC(C)(O)C#CC(C)(C)OC(O)C(Cl)(Cl)Cl (stereo not given)
inactive: [1] 96 % of control | [2] 101 % of control | [3] 93 % of control

CCC(C)C1NC(=O)C(CC(C)C)NC(=O)C(C(C)C)NC(=O)C2CSSCC(NC1=O)C(=O)N2 (stereo not given) (cyclo(CCVLI); disulfide 1-2; configuration not given here)
inactive: dose: 31.25 micrograms/kg/injection, schedule: Q01DX009 (ip), vehicle: Klucel (hydroxypropylcellulose) (HPC) 93 % of control | dose: 62.5 micrograms/kg/injection, schedule: Q01DX009 (ip), vehicle: Klucel (hydroxypropylcellulose) (HPC) 95 % of control | dose: 125.0 micrograms/kg/injection, schedule: Q01DX009 (ip), vehicle: Klucel (hydroxypropylcellulose) (HPC) 98 % of control | dose: 250.0 micrograms/kg/injection, schedule: Q01DX009 (ip), vehicle: Klucel (hydroxypropylcellulose) (HPC) 96 % of control | dose: 500.0 micrograms/kg/injection, schedule: Q01DX009 (ip), vehicle: Klucel (hydroxypropylcellulose) (HPC) 98 % of control | dose: 1000.0 micrograms/kg/injection, schedule: Q01DX009 (ip), vehicle: Klucel (hydroxypropylcellulose) (HPC) 96 % of control

CC(C)OC(=O)Nc1ccccc1Cl
inactive: dose: 100.0 mg/kg/injection, schedule: Q04DX003 (ip), vehicle: saline sonified 92 % of control | dose: 200.0 mg/kg/injection, schedule: Q04DX003 (ip), vehicle: saline sonified 94 % of control | dose: 400.0 mg/kg/injection, schedule: Q04DX003 (ip), vehicle: saline sonified 94 % of control

CCCNC(=O)OCC#CC#CCOC(=O)NCCC
inactive: [4] 94 % of control | [5] 98 % of control | dose: 400.0 mg/kg/injection, schedule: Q04DX003 (ip), vehicle: Klucel (hydroxypropylcellulose) (HPC) 96 % of control

CN(C)CC1CCCCC(CN(C)C)C1=O (stereo not given)
inactive: dose: 75.0 mg/kg/injection, schedule: Q01DX001 (ip), vehicle: saline 120 % of control | dose: 150.0 mg/kg/injection, schedule: Q01DX001 (ip), vehicle: saline 104 % of control | dose: 300.0 mg/kg/injection, schedule: Q01DX001 (ip), vehicle: saline 104 % of control

CC12NC(=O)NC1(C)NC(=O)N2 (stereo not given)
inactive: [6] 95 % of control | [7] 101 % of control | [8] 86 % of control

[Pd].[Pd].[S-]CC[S-].[S-]CC[S-].c1ccc([PH+](c2ccccc2)c2ccccc2)cc1.c1ccc([PH+](c2ccccc2)c2ccccc2)cc1
inactive: dose: 3.13 mg/kg/injection, schedule: Q04DX003 (ip), vehicle: distilled water + Tween-80 106 % of control | dose: 6.25 mg/kg/injection, schedule: Q04DX003 (ip), vehicle: distilled water + Tween-80 98 % of control | dose: 12.5 mg/kg/injection, schedule: Q04DX003 (ip), vehicle: distilled water + Tween-80 95 % of control | dose: 25.0 mg/kg/injection, schedule: Q04DX003 (ip), vehicle: distilled water + Tween-80 92 % of control | dose: 50.0 mg/kg/injection, schedule: Q04DX003 (ip), vehicle: distilled water + Tween-80 95 % of control | dose: 100.0 mg/kg/injection, schedule: Q04DX003 (ip), vehicle: distilled water + Tween-80 92 % of control | dose: 200.0 mg/kg/injection, schedule: Q04DX003 (ip), vehicle: distilled water + Tween-80 93 % of control

COC1C(O)=C2C(=O)OC(C)(O)/C=C/C=C\C=C/C=C/C(c3ccccc3)NC(=O)/C=C/C=C/C=C/C=C/C2(C)C1O (stereo not given)
inactive: dose: 6.25 mg/kg/injection, schedule: Q01DX009 (ip), vehicle: Klucel (hydroxypropylcellulose) (HPC) 106 % of control | dose: 12.5 mg/kg/injection, schedule: Q01DX009 (ip), vehicle: Klucel (hydroxypropylcellulose) (HPC) 95 % of control | dose: 25.0 mg/kg/injection, schedule: Q01DX009 (ip), vehicle: Klucel (hydroxypropylcellulose) (HPC) 103 % of control

CC12CCC(=O)C=C1CCC1C2CCC2(C)C(C(=O)Cn3c(=O)cc[nH]c3=O)CCC12 (stereo not given)
inactive: dose: 12.5 mg/kg/injection, schedule: Q04DX003 (ip), vehicle: Klucel (hydroxypropylcellulose) (HPC) 91 % of control | dose: 25.0 mg/kg/injection, schedule: Q04DX003 (ip), vehicle: Klucel (hydroxypropylcellulose) (HPC) 97 % of control | dose: 50.0 mg/kg/injection, schedule: Q04DX003 (ip), vehicle: Klucel (hydroxypropylcellulose) (HPC) 91 % of control | [4] 95 % of control | [5] 103 % of control

C[N+]1(O)C2CCC1CC(O)C2 (stereo not given)
inactive: [9] 97 % of control | [10] 104 % of control | [11] 97 % of control

Cc1ccc2nc(-c3ccc([N+](=O)[O-])cc3)oc(=O)c2c1
inactive: dose: 50.0 mg/kg/injection, schedule: Q01DX009 (ip), vehicle: saline with Tween-80 93 % of control | [6] 97 % of control | [7] 93 % of control

CC(C)=CC(O)CC(O)(C(F)(F)F)C(F)(F)F (stereo not given)
inactive: [9] 94 % of control | [1] 94 % of control | [10] 97 % of control | [2] 94 % of control | [11] 100 % of control | [3] 90 % of control

CC1=C2CC3C(CC2(C)C(=O)C=C1)OC(=O)C3C (stereo not given)
inactive: [12] 93 % of control | [13] 89 % of control | [14] 98 % of control

C=C1C(C)C2C(Cc3ccccc3)NC(=O)C23C(OC(C)=O)C=CC(C)(O)C(=O)C(C)C/C=C/C3C1O (stereo not given)
inactive: dose: 0.63 mg/kg/injection, schedule: Q01DX009 (ip), vehicle: Klucel (hydroxypropylcellulose) (HPC) 101 % of control | dose: 1.25 mg/kg/injection, schedule: Q01DX009 (ip), vehicle: Klucel (hydroxypropylcellulose) (HPC) 101 % of control | dose: 2.5 mg/kg/injection, schedule: Q01DX009 (ip), vehicle: Klucel (hydroxypropylcellulose) (HPC) 95 % of control | dose: 5.0 mg/kg/injection, schedule: Q01DX009 (ip), vehicle: Klucel (hydroxypropylcellulose) (HPC) 98 % of control

C=CCN1C(=O)c2ccccc2C1=O
inactive: [6] 98 % of control | [12] 97 % of control | [7] 94 % of control | [13] 101 % of control | [8] 100 % of control | [14] 101 % of control
